From patent publication US7332317B2, “Phosphodiesterase and genes thereof” (Tanabe Seiyaku Co., Ltd., priority 1999, dated 2008)
Several values for one entry are separate records, joined by “and”; a condition that tells them apart may be missing. Identical values can stand only once. Like-named read-outs stand apart in the source and are kept apart here.

Key:
human PDE11A1 [1] = target: T1, human PDE11A1 (Homo sapiens, UniProt Q9HCR9, DUP921-921/R184Q); assay: Inhibition of human PDE11A1 activity by known PDE inhibitors (radio-labeled nucleotide method)
human PDE11A2 [2] = target: T2, human PDE11A2 (Homo sapiens, UniProt Q9HCR9, DUP921-921); assay: Inhibition of human PDE11A2 activity by known PDE inhibitors (radio-labeled nucleotide method)
human PDE11 = assay: Influence of cGMP on cAMP hydrolysis activity and of cAMP on cGMP hydrolysis activity; format: biochemical; conditions: 3.5 μM unlabeled cAMP; 0.01-100 μM cGMP added; PDE11A1 and PDE11A2, FIG. 3
human PDE11A1 [3] = target: T1, human PDE11A1; assay: Kinetic analysis of cAMP/cGMP hydrolysis by human PDE11A1 (Lineweaver-Burk plot); format: biochemical; design: inserted into a BamHI-XhoI site of an expression vector, pcDNA4/HisMaxC; made in house; host or cells: COS-7 cells; conditions: labelled substance as substrate, 0.1 to 10 μM
human PDE11A2 [4] = target: T2, human PDE11A2; assay: Kinetic analysis of cAMP/cGMP hydrolysis by human PDE11A2 (Lineweaver-Burk plot); format: biochemical; design: inserted into a BamHI-XhoI site of an expression vector, pHis, to obtain a vector plasmid pHis-PDE11T for PDE11A2 expression; made in house; host or cells: COS-7 cells; conditions: labelled substance as substrate, 0.1 to 10 μM
[5] = read-out: IC50 value for human PDE11A1 activity, effect on cGMP hydrolysis activity, substrate 1.3 μM unlabeled cGMP, inhibitor 0-100 μM, recombinant enzyme from COS-7 cells
[6] = read-out: IC50 value for human PDE11A2 activity, effect on cGMP hydrolysis activity, substrate 1.3 μM unlabeled cGMP, inhibitor 0-100 μM, recombinant enzyme from COS-7 cells

T2 sequence (Q9HCR9 with tags, fused parts or gaps isoform Q9HCR9-2 DUP671-671): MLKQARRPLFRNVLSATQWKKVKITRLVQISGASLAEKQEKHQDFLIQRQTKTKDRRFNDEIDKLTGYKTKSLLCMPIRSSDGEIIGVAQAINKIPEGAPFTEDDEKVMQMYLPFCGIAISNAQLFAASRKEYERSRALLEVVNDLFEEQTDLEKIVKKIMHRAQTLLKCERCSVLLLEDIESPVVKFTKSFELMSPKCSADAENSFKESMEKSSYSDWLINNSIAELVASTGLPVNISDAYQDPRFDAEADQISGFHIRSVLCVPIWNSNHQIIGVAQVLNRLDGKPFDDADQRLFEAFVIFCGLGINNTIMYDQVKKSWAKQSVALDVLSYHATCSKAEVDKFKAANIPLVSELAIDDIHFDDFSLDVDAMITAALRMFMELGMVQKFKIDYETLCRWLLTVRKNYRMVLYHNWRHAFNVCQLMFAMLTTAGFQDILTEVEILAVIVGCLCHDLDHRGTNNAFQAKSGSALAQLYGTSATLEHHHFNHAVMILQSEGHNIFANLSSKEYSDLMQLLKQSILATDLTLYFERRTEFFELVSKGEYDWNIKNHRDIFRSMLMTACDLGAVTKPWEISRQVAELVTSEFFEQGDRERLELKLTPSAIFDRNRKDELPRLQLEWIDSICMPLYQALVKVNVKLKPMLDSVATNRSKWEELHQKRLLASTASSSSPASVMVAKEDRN
T1 sequence (Q9HCR9 with tags, fused parts or gaps R184Q/DUP921-921): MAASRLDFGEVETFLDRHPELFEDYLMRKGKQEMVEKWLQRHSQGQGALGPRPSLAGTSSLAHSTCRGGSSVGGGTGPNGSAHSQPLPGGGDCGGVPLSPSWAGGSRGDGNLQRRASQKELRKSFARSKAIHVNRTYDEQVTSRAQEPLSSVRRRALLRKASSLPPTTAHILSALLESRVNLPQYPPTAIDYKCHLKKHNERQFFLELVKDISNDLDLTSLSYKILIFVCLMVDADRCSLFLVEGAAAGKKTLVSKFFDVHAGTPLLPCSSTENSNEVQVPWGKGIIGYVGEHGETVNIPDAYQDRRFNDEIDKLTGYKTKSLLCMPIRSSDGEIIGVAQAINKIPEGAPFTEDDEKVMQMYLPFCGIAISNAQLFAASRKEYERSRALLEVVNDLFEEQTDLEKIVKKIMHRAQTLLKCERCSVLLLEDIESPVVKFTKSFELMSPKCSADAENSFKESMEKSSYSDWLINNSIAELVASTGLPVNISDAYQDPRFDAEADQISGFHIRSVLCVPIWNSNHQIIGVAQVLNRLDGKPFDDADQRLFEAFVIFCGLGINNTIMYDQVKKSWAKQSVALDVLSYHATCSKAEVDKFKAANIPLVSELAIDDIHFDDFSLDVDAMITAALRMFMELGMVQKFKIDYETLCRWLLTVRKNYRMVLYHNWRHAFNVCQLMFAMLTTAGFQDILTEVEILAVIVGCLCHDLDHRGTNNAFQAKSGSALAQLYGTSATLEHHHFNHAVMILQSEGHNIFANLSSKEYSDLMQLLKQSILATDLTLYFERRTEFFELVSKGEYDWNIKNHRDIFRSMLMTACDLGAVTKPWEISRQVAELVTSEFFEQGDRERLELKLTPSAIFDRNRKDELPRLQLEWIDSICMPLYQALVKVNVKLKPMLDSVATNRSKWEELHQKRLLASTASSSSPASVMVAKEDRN

Structure (SMILES) | IC50 (human PDE11A1 [1]) | IC50 (human PDE11A1 [1]; [5]) | IC50 (human PDE11A2 [2]) | also measured
CCOC(=O)C1=C[C@]2(CC)CCCN3CCc4c(n1c1ccccc41)[C@@H]32 [Vinpocetine] | > 100 µM | > 100 µM | 49 µM and 68 µM | 
Cc1[nH]c(=O)c(C#N)cc1-c1ccncc1 [Milrinone] | > 100 µM | > 100 µM | > 100 µM | IC50 (human PDE11A2 [2]; [6]): > 100 µM
Nc1nc2c(ncn2[C@@H]2O[C@@H]3COP(=O)(O)O[C@H]3[C@H]2O)c(=O)[nH]1 [cGMP] |  |  |  | cAMP hydrolysis activity (relative value %) on addition of cGMP (human PDE11): lowered depending on a concentration of cGMP added; Km (human PDE11A1 [3]): 1.43 ± 0.109 µM; Vmax of human PDE11A1 (human PDE11A1 [3]): 121±8.08 pmol/min/μg of protein; Km (human PDE11A2 [4]): 1.47 ± 0.115 µM; Vmax of human PDE11A2 (human PDE11A2 [4]): 4.02±0.214 pmol/min/μg protein
Nc1ncnc2c1ncn2[C@@H]1O[C@@H]2COP(=O)(O)O[C@H]2[C@H]1O [cAMP] |  |  |  | Vmax of human PDE11A2 (human PDE11A2 [4]): 9.63±1.88 pmol/min/μg protein
CC(C)Cn1c(=O)n(C)c(=O)c2[nH]cnc21 [IBMX, 3-isobutyl-1-methylxanthine] | 65 µM and 81 µM |  | 30 µM and 38 µM | 
COc1ccc(C2CNC(=O)C2)cc1OC1CCCC1 (centres unmarked) [Rolipram] | > 100 µM | > 100 µM | > 100 µM | IC50 (human PDE11A2 [2]; [6]): > 100 µM

Continued, in another order:

IC50 (human PDE11A1 [1]) | IC50 (human PDE11A1 [1]; [5]) | IC50 (human PDE11A2 [2]) | Structure (SMILES) | also measured
22 µM and 25 µM |  | 11 µM and 8.6 µM | CN1C(=O)c2[nH]c(Cc3ccc(C(F)(F)F)cc3)nc2N2C1=N[C@@H]1CCC[C@@H]12 (single isomer, unassigned) [SCH51866, (+)-cis-5-methyl-2-[4-(trifluoromethyl)benzyl]-3,4,5,6a,7,8,9,9a-octahydrocyclopent[4,5]imidazo-[2,1-b]purin-4-one] | 
1.8 ± 0.33 µM |  | 0.88 µM and 0.66 µM | O=C(O)C1CCN(c2nc(NCc3ccc4c(c3)OCO4)c3cc(Cl)ccc3n2)CC1 [E4021, sodium 1-[6-chloro-4-(3,4-methylenedioxybenzyl)aminoquinazolin-2-yl]pyperidine-4-carboxylate] | 
